Results from US20060068389A1, “Methods and compositions for inhibiting hiv replication” (priority 2002, published 2006).

Experiments:
Vpr [1] = experiment: Viral complementation accomplished with exogenous Vpr protein; assay type: cell-based, HIV-1
From the text: (§1) The Vpr gene of HIV-1 encodes a 15 KD virion associated protein which functions as a regulator of cellular processes linked to the HIV life cycle. We observed the interaction of a 41-kD cytosolic viral protein R interacting protein-1 (rip-1), associated with Vpr in vitro, and co-localizes in cells ex vivo. […] This protein co-elutes with Vpr in an immunoaffmity system and can be cross-linked with Vpr to form a 58 Kd complex. […] The Vpr mediated stimulation of Rip-1 nuclear translocation, and the viral complementation accomplished with exogenous Vpr protein was mimicked by GR II stimulating steroids. These effects were inhibited by mifepristone, a well-characterized GR II pathway inhibitor. In addition, the levels of LTR-CAT induction attained by Vpr protein were similarly obtained by GR activating steroids. Vpr protein induced CAT activity in cells transfected with a plasmid that contains CAT linked to HIV-1 LTR, pLTR-CAT, and co-localized with Dexamethasone as to the site of its induction of CAT activity from a panel of HIV-1 LTR CAT deletion mutants. In addition, Vpr stimulated the formation of the DNA binding complex which associates with GRE sequences during the glucocorticoid mediated transactivation process.

Rip-1 = experiment: Vpr mediated stimulation of Rip-1 nuclear translocation; assay type: cell-based, human
From the text: as §1

Vpr [2] = conditions: typical of multiple assays, FIG. 1
From the text: Accordingly to test if additional anti-glucocorticoids might mediate similar effects, screening assays were developed based on the above Vpr activities which include inhibition of antiviral activity, rescue of the inhibition of cell proliferation and viral transactivation studies. Mifepristone analogues were chosen by SAR analysis.

Compound | inhibition of viral complementation accomplished with exogenous Vpr protein (Vpr [1]) | inhibition of Vpr mediated stimulation of Rip-1 nuclear translocation (Rip-1) | activity in the above assays (Vpr-based screening assays) (Vpr [2])
CC#C[C@]1(O)CC[C@H]2[C@@H]3CCC4=CC(=O)CCC4=C3[C@@H](c3ccc(N(C)C)cc3)C[C@@]21C [mifepristone] | inhibited | inhibited | –
CC(=O)C1CCC2C3C=CC4=CC(=O)CCC4(C)C3CCC12C (stereo not shown) [Compound D1, Pregna4,6,-diene-3,20-dione] | – | – | some activity
C#C[C@]1(O)CCC2C3CCC4=C(CCC(=O)C4)C3CCC21C (stereo partly drawn) [Compound D2, 17-α-ethynyl-17-β-hydroxyestr-5(10)-En-3-one] | – | – | some activity
